Measurements: PMC3513558 (European journal of medicinal chemistry, 2012)
Entries after “also recorded” stand apart in the source; their conditions may differ.

Target: intracellular HCV NS5B RdRp activity in BHK-NS5B-FRLuc reporter cells (Hepatitis C virus genotype 1b, UniProt P26663)
Assay: BHK-NS5B-FRLuc reporter assay, intracellular NS5B RdRp activity
Assay type: cell-based
Settings: 100 µM, 42 hours, RLuc/FLuc vs DMSO

Chain of intracellular HCV NS5B RdRp activity in BHK-NS5B-FRLuc reporter cells (P26663 2420-3010): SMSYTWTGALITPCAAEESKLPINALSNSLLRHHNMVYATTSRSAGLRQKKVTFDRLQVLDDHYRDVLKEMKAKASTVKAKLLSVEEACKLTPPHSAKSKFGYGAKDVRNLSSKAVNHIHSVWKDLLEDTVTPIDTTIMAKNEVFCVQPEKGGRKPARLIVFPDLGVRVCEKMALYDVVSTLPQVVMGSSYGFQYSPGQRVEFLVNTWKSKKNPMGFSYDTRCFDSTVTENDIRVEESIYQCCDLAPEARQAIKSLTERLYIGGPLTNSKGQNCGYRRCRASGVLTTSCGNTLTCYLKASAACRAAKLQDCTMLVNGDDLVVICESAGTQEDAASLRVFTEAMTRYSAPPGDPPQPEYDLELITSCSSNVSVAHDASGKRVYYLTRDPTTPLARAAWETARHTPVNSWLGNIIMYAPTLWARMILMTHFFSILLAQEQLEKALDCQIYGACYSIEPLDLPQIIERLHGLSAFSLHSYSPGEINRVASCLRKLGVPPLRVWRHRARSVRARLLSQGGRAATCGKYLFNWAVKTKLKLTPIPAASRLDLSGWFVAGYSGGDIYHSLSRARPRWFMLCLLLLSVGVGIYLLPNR

For `Cc1cc(O)c(C(c2ccc(Cl)c(Cl)c2)c2c(O)cc(C)oc2=O)c(=O)o1` [Compound 8, 3,3'-[(3,4-Dichlorophenyl)methylene]bis(4-hydroxy-6-methyl-2H-pyran-2-one)], the “% Inhibition of intracellular NS5B RdRp activity” value was “did not inhibit; also recorded: No inhibition”.
